The values that follow come from patent US20240376091A1, “THIADIAZOLEAMIDE DERIVATIVES AND THEIR APPLICATIONS” (ZHEJIANG UNIVERSITY, priority 2021, published 2024).

By IC50 is commonly meant the concentration at which inhibition is half-maximal.

In the assay the target is T1, AR (Homo sapiens, UniProt P10275, T878A).
T1 construct: into the androgen-dependent PCa cells (LNCaP); endogenous in cells; host or cells: LNCaP-ARR2PB-eGFP
T1 sequence (P10275 1-920 T878A): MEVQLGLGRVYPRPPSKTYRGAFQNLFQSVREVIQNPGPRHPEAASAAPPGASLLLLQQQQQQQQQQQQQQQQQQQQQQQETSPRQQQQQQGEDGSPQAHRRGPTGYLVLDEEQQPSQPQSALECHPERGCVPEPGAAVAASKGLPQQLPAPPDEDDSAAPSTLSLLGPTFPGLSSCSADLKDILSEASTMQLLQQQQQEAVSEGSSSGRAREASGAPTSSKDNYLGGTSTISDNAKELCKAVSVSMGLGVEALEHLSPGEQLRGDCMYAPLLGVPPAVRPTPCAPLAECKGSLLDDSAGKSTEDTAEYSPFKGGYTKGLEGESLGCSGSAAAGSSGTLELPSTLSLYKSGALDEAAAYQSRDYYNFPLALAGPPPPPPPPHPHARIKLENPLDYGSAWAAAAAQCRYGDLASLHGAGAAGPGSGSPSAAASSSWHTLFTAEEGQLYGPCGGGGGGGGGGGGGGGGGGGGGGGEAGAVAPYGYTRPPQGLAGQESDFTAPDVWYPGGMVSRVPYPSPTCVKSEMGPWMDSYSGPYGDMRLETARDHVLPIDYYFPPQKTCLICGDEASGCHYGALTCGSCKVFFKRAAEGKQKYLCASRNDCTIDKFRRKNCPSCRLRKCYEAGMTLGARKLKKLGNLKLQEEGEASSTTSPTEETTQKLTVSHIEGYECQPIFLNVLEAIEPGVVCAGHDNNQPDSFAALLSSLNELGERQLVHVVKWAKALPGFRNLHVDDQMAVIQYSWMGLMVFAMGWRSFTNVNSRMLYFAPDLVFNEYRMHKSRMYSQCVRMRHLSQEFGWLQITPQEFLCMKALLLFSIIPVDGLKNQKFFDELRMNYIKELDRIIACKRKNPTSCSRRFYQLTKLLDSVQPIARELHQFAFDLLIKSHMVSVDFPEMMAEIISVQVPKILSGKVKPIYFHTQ
Put plainly: AR transcriptional activity, LNCaP-ARR2PB-eGFP reporter cells. It is filed as cell-based. To be noted: read-out: IC50 AR transcriptional activities. From the text:
Detection principles: We conducted a stable transfection of promoter ARR2PB known for its strong AR responsiveness, into the androgen-dependent PCa cells (LNCaP). The expression of enhanced green fluorescent protein (eGFP) is depending on the degree of activation of AR. Therefore, LNCaP-ARR2PB-eGFP cell line could quantitatively determine the AR antagonistic activities of the compounds by evaluating the expression of eGFP.
Regarding `CC(=O)Cc1nsc(NC(=O)c2cc(-c3cccc(O)c3)oc2C)n1` [Compound A-26, 5-(3-Hydroxyphenyl)-2-methyl-N-(3-(2-oxopropyl)-1,2,4-thiadiazol-5-yl)furan-3-carboxamide], the IC50 is 3.21 µM.

For the compound `Cc1oc(C(=O)Nc2nc(CN3CCCCC3)ns2)cc1-c1cccc(C#N)c1` [Compound F-25, 4-(3-Cyanophenyl)-5-methyl-N-(3-(piperidin-1-ylmethyl)-1,2,4-thiadiazol-5-yl)furan-2-carboxamide], the concentration for half-maximal inhibition (IC50) was 15.5 µM.

In the case of `CC(=O)Cc1nsc(NC(=O)c2cc(-c3cccc(C(F)(F)F)c3)oc2C(F)(F)F)n1` [Compound E-1, N-(3-(2-oxopropyl)-1,2,4-thiadiazol-5-yl)-2-(trifluoromethyl)-5-(3-(trifluoro-methyl)phenyl)furan-3-carboxamide], the 50% inhibitory concentration (IC50) amounted to 1.06 µM.

As for `COc1cccc(-c2cc(C(=O)Nc3nc(CC(C)=O)ns3)cs2)c1` [Compound D-3, 5-(3-Methoxyphenyl)-N-(3-(2-oxopropyl)-1,2,4-thiadiazol-5-yl)thiophene-3-carboxamide], the concentration for half-maximal inhibition (IC50) turned out to be 13.6 µM.

On to `CC(=O)Cc1nsc(NC(=O)c2cc(-c3cccc(OC(C)=O)c3)oc2C)n1` [Compound A-27, 3-(5-Methyl-4-((3-(2-oxopropyl)-1,2,4-thiadiazol-5-yl)carbamoyl)furan-2-yl)phenyl acetate], for which the IC50 was 5.5 µM.

For `COc1cccc(-c2coc(C(=O)Nc3nc(CN4CCOCC4)ns3)c2)c1` [Compound G-26, 4-(3-Methoxyphenyl)-N-(3-(morpholinomethyl)-1,2,4-thiadiazol-5-yl)furan-2-carboxamide], the IC50 was 27.1 µM.

For `O=C(Nc1nc(CCl)ns1)c1cc(-c2cccc(C(F)(F)F)c2)oc1C(F)(F)F` [Compound E-32, N-(3-(chloromethyl)-1,2,4-thiadiazol-5-yl)-2-(trifluoromethyl)-5-(3-(trifluoromethyl)phenyl)furan-3-carboxamide], the IC50 was found to be 1.32 µM.

As for `COc1cccc(-c2coc(C(=O)Nc3nc(CC(C)N4CCOCC4)ns3)c2)c1` (stereo not shown) [Compound G-8, 4-(3-Methoxyphenyl)-N-(3-(2-morpholinopropyl)-1,2,4-thiadiazol-5-yl)furan-2-carboxamide], the 50% inhibitory concentration (IC50) came to 19.2 µM.

As to `CC(Cc1nsc(NC(=O)c2coc(-c3cccc(OC(F)(F)F)c3)c2)n1)N1CCOCC1` (stereo not shown) [Compound B-16, N-(3-(2-morpholinopropyl)-1,2,4-thiadiazol-5-yl)-5-(3-(trifluoromethoxy)phenyl)furan-3-carboxamide], the IC50 was determined as 35.7 µM.

With `COc1cccc(-c2cc(C(=O)Nc3nc(CC(C)=O)ns3)c(C(F)(F)F)o2)c1` [Compound E-3, 5-(3-Methoxyphenyl)-N-(3-(2-oxopropyl)-1,2,4-thiadiazol-5-yl)-2-(trifluoromethyl)furan-3-carboxamide], the IC50 was 0.57 µM.

Consider `CC(=O)Cc1nsc(NC(=O)c2cc(-c3cccc(NC(C)=O)c3)oc2C)n1` [Compound A-25, 5-(3-Acetamidophenyl)-2-methyl-N-(3-(2-oxopropyl)-1,2,4-thiadiazol-5-yl)furan-3-carboxamide], for which the 50% inhibitory concentration (IC50) is 13.6 µM.

Turning to `COc1cccc(-c2cc(C(=O)Nc3nc(CN4CCOCC4)ns3)c(C(F)(F)F)o2)c1` [Compound E-39, 5-(3-Methoxyphenyl)-N-(3-(morpholinomethyl)-1,2,4-thiadiazol-5-yl)-2-(trifluoromethyl)furan-3-carboxamide], the IC50 is 2.19 µM.

Regarding `CN1CCN(Cc2nsc(NC(=O)c3cc(-c4cccc(C#N)c4)oc3C(F)(F)F)n2)CC1` [Compound E-38, 5-(3-Cyanophenyl)-N-(3-((4-methylpiperazin-1-yl)methyl)-1,2,4-thiadiazol-5-yl)-2-(trifluoromethyl)furan-3-carboxamide], the half-inhibitory concentration (IC50) is 1.45 µM.

For the compound `Cc1oc(-c2cccc(C(F)(F)F)c2)cc1C(=O)Nc1nc(CC(C)N2CCN(C)CC2)ns1` (stereo not shown) [Compound A-43, 2-Methyl-N-(3-(2-(4-methylpiperazin-1-yl)propyl)-1,2,4-thiadiazol-5-yl)-5-(3-(trifluoro-methyl)phenyl)furan-3-carboxamide], the half-inhibitory concentration (IC50) turned out to be 0.04 µM.

In the case of `Cc1oc(C(=O)Nc2nc(CC(C)(F)F)ns2)cc1-c1cccc(OC(F)(F)F)c1` [Compound F-17, N-(3-(2,2-difluoropropyl)-1,2,4-thiadiazol-5-yl)-5-methyl-4-(3-(trifluoromethoxy)phenyl)furan-2-carboxamide], the IC50 is 25 µM.

For `CCN(CC)C(C)Cc1nsc(NC(=O)c2csc(-c3cccc(C(F)(F)F)c3)c2)n1` [Compound D-7, N-(3-(2-(diethylamino)propyl)-1,2,4-thiadiazol-5-yl)-5-(3-(trifluoromethyl)phenyl)thiophene-3-carboxamide], the IC50 worked out at 23.2 µM.

Regarding `CC(Cc1nsc(NC(=O)c2cc(-c3cccc(C#N)c3)oc2C(F)(F)F)n1)N1CCOCC1` (stereo not shown) [Compound E-8, 5-(3-Cyanophenyl)-N-(3-(2-morpholinopropyl)-1,2,4-thiadiazol-5-yl)-2-(trifluoromethyl)furan-3-carboxamide], the IC50 came to 7.54 µM.

Regarding `O=C(Nc1nc(CN2CCCC2)ns1)c1cc(-c2cccc(OC(F)(F)F)c2)oc1C(F)(F)F` [Compound E-40, N-(3-(pyrrolidin-1-ylmethyl)-1,2,4-thiadiazol-5-yl)-5-(3-(trifluoromethoxy)phenyl)-2-(trifluoromethyl)furan-3-carboxamide], the IC50 came out at 2.92 µM.

On to `CC(=O)Cc1nsc(NC(=O)c2csc(-c3cccc(OC(F)F)c3)c2)n1` [Compound D-5, 5-(3-(Difluoromethoxy)phenyl)-N-(3-(2-oxopropyl)-1,2,4-thiadiazol-5-yl)thiophene-3-carboxamide], for which the 50% inhibitory concentration (IC50) is 40 µM.

With `Cc1sc(-c2cccc(OC(F)(F)F)c2)cc1C(=O)Nc1nc(CC(C)N2CCOCC2)ns1` (stereo not shown) [Compound C-17, 2-Methyl-N-(3-(2-morpholinopropyl)-1,2,4-thiadiazol-5-yl)-5-(3-(trifluoromethoxy)phenyl)thiophene-3-carboxamide], the half-inhibitory concentration (IC50) worked out at 6.17 µM.

With `Cc1oc(C(=O)Nc2nc(CC(C)N3CCN(C)CC3)ns2)cc1-c1cccc(OC(F)F)c1` (stereo not shown) [Compound F-10, 4-(3-(Difluoromethoxy)phenyl)-5-methyl-N-(3-(2-(4-methylpiperazin-1-yl)propyl)-1,2,4-thiadiazol-5-yl)furan-2-carboxamide], the IC50 was determined as 27.1 µM.

Regarding `Cc1oc(C(=O)Nc2nc(CN3CCCC3)ns2)cc1-c1cccc(C(F)(F)F)c1` [Compound F-24, 5-Methyl-N-(3-(pyrrolidin-1-ylmethyl)-1,2,4-thiadiazol-5-yl)-4-(3-(trifluoromethyl)phenyl)furan-2-carboxamide], the IC50 was found to be 35.2 µM.

For the compound `CC(Cc1nsc(NC(=O)c2cc(-c3cccc(C(F)(F)F)c3)sc2C)n1)=C(F)F` [Compound C-30, N-(3-(3,3-difluoro-2-methylallyl)-1,2,4-thiadiazol-5-yl)-2-methyl-5-(3-(trifluoromethyl)phenyl)thiophene-3-carboxamide], the IC50 amounted to 12.7 µM.

As to `COc1cccc(-c2coc(C(=O)Nc3nc(CC(C)=O)ns3)c2)c1` [Compound G-3, 4-(3-Methoxyphenyl)-N-(3-(2-oxopropyl)-1,2,4-thiadiazol-5-yl)furan-2-carboxamide], the concentration for half-maximal inhibition (IC50) came to 33.6 µM.

Consider `CCN(CC)C(C)Cc1nsc(NC(=O)c2cc(-c3cccc(OC(F)F)c3)oc2C)n1` (stereo not shown) [Compound A-45, N-(3-(2-(diethylamino)propyl)-1,2,4-thiadiazol-5-yl)-5-(3-(difluoromethoxy)phenyl)-2-methylfuran-3-carboxamide], for which the IC50 is 0.04 µM.

In the case of `CC(=O)Cc1nsc(NC(=O)c2cc(-c3cccc4ccccc34)oc2C)n1` [Compound A-11, 2-Methyl-5-(naphthalen-1-yl)-N-(3-(2-oxopropyl)-1,2,4-thiadiazol-5-yl)furan-3-carboxamide], the IC50 was 4.24 µM.

For `CN(C)Cc1nsc(NC(=O)c2coc(-c3cccc(C#N)c3)c2)n1` [Compound B-47, 5-(3-Cyanophenyl)-N-(3-((dimethylamino)methyl)-1,2,4-thiadiazol-5-yl)furan-3-carboxamide], the IC50 turned out to be 18.6 µM.

For `CC(=O)Cc1nsc(NC(=O)c2cc(-c3cccc(N)c3)oc2C)n1` [Compound A-24, 5-(3-Aminophenyl)-2-methyl-N-(3-(2-oxopropyl)-1,2,4-thiadiazol-5-yl)furan-3-carboxamide], the concentration for half-maximal inhibition (IC50) was 1.62 µM.
